According to patent US12319664B2, “Herbicidally active 3-phenylisoxazoline-5-carboxamides of cyclopentenylcarboxylic acid derivatives” (Bayer Aktiengesellschaft, priority 2018, dated 2025):

Legend:
ECHCG = test: Post-emergence herbicidal action against ECHCG; assay type: in vivo, Echinochloa crus-galli; details: application rate 80 g/ha, rated visually after about 3 weeks
Procedure, shortened: (§1)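 Aqueous suspensions or emulsions of WP/EC formulations containing 0.5% additive are sprayed at 600 l/ha onto plants at the one-leaf stage. After about 3 weeks in the greenhouse, activity is rated by eye versus untreated controls.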

ABUTH = test: Post-emergence herbicidal action against ABUTH; assay type: in vivo, Abutilon theophrasti; details: application rate 80 g/ha, rated visually about 3 weeks after treatment
Procedure, shortened: as §1

ALOMY = test: Post-emergence herbicidal action against ALOMY; assay type: in vivo, Alopecurus myosuroides; details: application rate 80 g/ha, rated visually after about 3 weeks
Procedure, shortened: as §1

STEME = test: Post-emergence herbicidal action against STEME; assay type: in vivo, Stellaria media; details: application rate 80 g/ha, rated visually about 3 weeks after treatment
Procedure, shortened: as §1

VERPE = test: Post-emergence herbicidal action against VERPE; assay type: in vivo, Veronica persica; details: application rate 80 g/ha
Procedure, shortened: as §1

MATIN = test: Post-emergence herbicidal action against MATIN; assay type: in vivo, Matricaria inodora; details: application rate 80 g/ha, rated visually about 3 weeks after treatment
Protocol: [table] 2. Post-emergence herbicidal action against harmful plants and crop plant compatibility Seeds of monocotyledonous and dicotyledonous weeds and crop plants are placed in sandy loam in plastic or wood-fibre pots, covered with soil and cultivated in a greenhouse under controlled growth conditions. 2 to 3 weeks after sowing, the test plants are treated at the one-leaf stage. The compounds of the invention, formulated in the form of wettable powders (WP) or as emulsion concentrates (EC), are then sprayed onto the green parts of the plants as aqueous suspension or emulsion with addition of 0.5% additive at a water application rate of 600 l/ha (converted). After the test plants have been kept in the greenhouse under optimum growth conditions for about 3 weeks, the activity of the preparations is rated visually in comparison to untreated controls. For example, 100% activity=the plants have died, 0% activity=like control plants.

AVEFA = test: Post-emergence herbicidal action against AVEFA; assay type: in vivo, Avena fatua; details: application rate 80 g/ha, rated visually after about 3 weeks
Procedure, shortened: as §1

HORMU = test: Post-emergence herbicidal action against HORMU; assay type: in vivo, Hordeum murinum; details: application rate 80 g/ha
Procedure, shortened: as §1

LOLRI = test: Post-emergence herbicidal action against LOLRI; assay type: in vivo, Lolium rigidum; details: application rate 80 g/ha, rated visually after about 3 weeks
Procedure, shortened: as §1

SETVI = test: Post-emergence herbicidal action against SETVI; assay type: in vivo, Setaria viridis; details: application rate 80 g/ha, rated visually after about 3 weeks
Procedure, shortened: as §1

AMARE = test: Post-emergence herbicidal action against AMARE; assay type: in vivo, Amaranthus retroflexus; details: application rate 80 g/ha, rated visually about 3 weeks after treatment
Procedure, shortened: as §1

PHBPU = test: Post-emergence herbicidal action against PHBPU; assay type: in vivo, Pharbitis purpurea; details: application rate 80 g/ha, rated visually about 3 weeks after treatment
Procedure, shortened: as §1

POLCO = test: Post-emergence herbicidal action against POLCO; assay type: in vivo, Polygonum convolvulus; details: application rate 80 g/ha, rated visually about 3 weeks after treatment
Procedure, shortened: as §1

VIOTR = test: Post-emergence herbicidal action against VIOTR; assay type: in vivo, Viola tricolor; details: application rate 80 g/ha, rated visually about 3 weeks after treatment
Procedure, shortened: as §1

Structure (SMILES)	Herbicidal action against [%] ECHCG (ECHCG) [%]	Herbicidal action against [%] ABUTH (ABUTH) [%]	Herbicidal action against [%] ALOMY (ALOMY) [%]	Herbicidal action against [%] STEME (STEME) [%]	Herbicidal action against [%] VERPE (VERPE) [%]	Herbicidal action against [%] MATIN (MATIN) [%]	Herbicidal action against [%] AVEFA (AVEFA) [%]	Herbicidal action against [%] HORMU (HORMU) [%]	Herbicidal action against [%] LOLRI (LOLRI) [%]	Herbicidal action against [%] SETVI (SETVI) [%]	Herbicidal action against [%] AMARE (AMARE) [%]	Herbicidal action against [%] PHBPU (PHBPU) [%]	Herbicidal action against [%] POLCO (POLCO) [%]	Herbicidal action against [%] VIOTR (VIOTR) [%]
O=C(OCCCl)C1C=CC(NC(=O)C2(C(F)(F)F)CC(c3cc(Cl)cc(Cl)c3)=NO2)C1 (mixture of isomers) [Example I-040]	90	80	90	90	80	80	90	90	90					
O=C(OCC(F)(F)F)C1C=CC(NC(=O)C2(C(F)(F)F)CC(c3cc(Cl)cc(Cl)c3)=NO2)C1 (mixture of isomers) [Example I-041]	80	80		80		80	90	90	80					
CCOC(=O)C1C=CC(NC(=O)C2(C(F)(F)F)CC(c3cccc(Cl)c3)=NO2)C1 (mixture of isomers) [Example I-042]	90	80	100	90	80	80	100	90	100	80				
COC(=O)C1C=CC(NC(=O)C2(C(F)(F)F)CC(c3cccc(Cl)c3)=NO2)C1 (mixture of isomers) [Example I-046]	90	90	90	90	80	80	90	100	100	80	80			
CCOC(=O)C1C=CC(NC(=O)C2(C(F)(F)F)CC(c3cc(C)cc(C)c3)=NO2)C1 (mixture of isomers) [Example I-053]			90	90	80	80	90		90			80		
C=CC1(C(=O)NC2C=CC(C(=O)O)C2)CC(c2cc(F)cc(F)c2)=NO1 (centres unmarked) [Example I-011]	90		90	90	80	80	90	80	90	80			80	
C=CC1(C(=O)N[C@H]2C=C[C@@H](C(=O)OCCOC)C2)CC(c2cc(F)cc(F)c2)=NO1 (some centres unmarked) [Example I-018]	100	90	100		90	80	100	90	100	90	90		100	
Cc1cc(F)cc(C2=NOC(C(=O)N[C@H]3C=C[C@@H](C(=O)OCCCl)C3)(C(F)(F)F)C2)c1 (some centres unmarked) [Example I-031]	80		90		80	80	90	90	100	90	90	80	90	
N#Cc1cc(F)cc(C2=NOC(C(=O)N[C@H]3C=C[C@@H](C(=O)OCC(F)(F)F)C3)(C(F)(F)F)C2)c1 (some centres unmarked) [Example I-096]	80	90	100	90	90		100	100	100	80	90	90	90	90
COCCOC(=O)C1C=CC(NC(=O)C2(C(F)(F)F)CC(c3cc(F)cc(C#N)c3)=NO2)C1 (centres unmarked) [Example I-100]	90	80	100	90	90		100	90	90	80	80	80	90	80
CCOC(=O)C1C=CC(NC(=O)C2(C#N)CC(c3cc(F)cc(F)c3)=NO2)C1 (centres unmarked) [Example I-104]	80		90	80	80	80	80	90	90		80		90	
CCOC(=O)C1=CC[C@H](NC(=O)C2(C)CC(c3cc(F)cc(F)c3)=NO2)C1 (some centres unmarked) [III-07]	90	80	90	90	90		90	80	90	90	90	80	80	90
C=CC1(C(=O)N[C@H]2CC=C(C(=O)OC)C2)CC(c2cc(F)cc(F)c2)=NO1 (some centres unmarked) [III-08]	90	80	90	90	90		100	100	90	90	80	80	80	80
C=CC1(C(=O)N[C@H]2CC=C(C(=O)O)C2)CC(c2cc(F)cc(F)c2)=NO1 (some centres unmarked) [III-09]	90	80	90	90	90		100	100	100	80	90	90	90	90
C=CC1(C(=O)N[C@H]2CC=C(C(=O)OCC)C2)CC(c2cc(F)cc(F)c2)=NO1 (some centres unmarked) [III-17]	80	80	100	90	90		90	90	90	80	90	90	80	80
